Reference: patent publication US6291676A, “Water-soluble derivatives of camptothecin/homocamptothecin” (priority 2000, dated 2001)

How the values were obtained:
[1] = Fluorescence emission spectra in solvents and vesicle suspensions; format: physicochemical; details: 37° C
Experimental: FIG. 1 is the fluorescence emission spectra of 1 μM of 7-(1-Aminoethyl)camptothecin (7AEC) in various solvents and suspensions such as phosphate buffered saline, ethanol, and phosphate buffered saline containing small unilamellar vesicles (SUVs) composed either of dimyristoylphosphatidylcholine (DMPC) or dimyristoylphosphatidlyglycerol (DMPG). Experiments were conducted at 37° C. using exciting light of 370 nm.
FIG. 2 is the fluorescence emission spectra of 4 μM of 7-[N-(4-methyl-1-piperazino) aminomethyl]-(20S)-camptothecin (CT-17) in various solvents and suspensions such as phosphate buffered saline, ethanol, and phosphate buffered saline containing small unilamellar vesicles (SUVs) composed either of DMPC or DMPG. Experiments were conducted at 37° C. using exciting light of 370 nm.
Fluorescence Instrumentation. Steady-state fluorescence measurements were obtained on a SLM Model 9850 spectrofluorometer with a thermostated cuvette compartment. This instrument was interfaced with an IBM PS/2 model 55 SX computer. Excitation and emission spectra were recorded with an excitation resolution of 8 nm and an emission resolution of 4 nm. In all cases spectra were corrected for background fluorescence and scatter from unlabeled lipids or from solvents by subtraction of the spectrum of a blank. Steady-state fluorescence intensity measurements were made in the absence of polarizers. […]

topoisomerase I = assay: Topoisomerase I mediated DNA cleavage (cleavable complex induction); format: biochemical
Source text: Evaluation of the Relative Abilities of the Novel Polyamine Camptothecin Analogs to Induce Topoisomerase I Mediated DNA Single Strand Breaks. We have evaluated the abilities of the novel compounds of the present invention to inhibit the topoisomerase I enzyme. In these experiments the oligonucleotide was labeled at the 3'-end of the upper (scissile) strand with 32P-α-cordycepin and terminal transferase (Pommier, Y., Kohlhagen, G., Kohn, F., Leteurtre, F., Wani, M. C., and Wall, M. E. Proc. Natl. Acad. Sci. U.S.A. 92:8861-8865, 1995). Topoisomerase I (Top1) cleavage generates a 23mer that can be easily detected by electrophoresis and quantitated by Phosphorimager analysis. Tanizawa et al. (Tanizawa, A., Kohn, K. W., Kohlhagen, G., Leteurtre, F., and Pommier, Y. Biochemistry […]:7200-7206, 1995) have previously shown that camptothecin derivatives differ in the manner in which they stabilize the top1 cleavable complexes that they induce. The novel polyamine camptothecins of the present invention were compared in this assay. 0.35M NaCl was added to force top 1-mediated DNA religation and DNA cleavage was measured at various times after NaCl addition. FIG. 9 is a typical phosphoimager picture showing the timecourse of the effects of various camptothecins on the relaxation of DNA in the presence of topoisomerase I. Topoisomerase I-mediated cleavage generates DNA fragments that can be readily detected by electrophoresis and quantitated by phosphorimager analysis.
FIG. 10 is a phosphoimager picture showing the dose response of various camptothecin compounds described in the present invention on the relaxation of DNA in the presence of topoisomerase I. Topoisomerase I-mediated cleavage generates DNA fragments that can be readily detected by electrophoresis and quantitated by phosphorimager analysis as shown.
FIG. 11 contains a phosphoimager picture (bottom figure) showing the dose response effects of several of the novel polyamine camptothecins of the current invention on the relaxation of DNA in the presence of topoisomerase I. Topoisomerase I-mediated cleavage generates DNA fragments that can be readily detected by electrophoresis and quantitated by phosphorimager analysis (top figure).

[2] = Stability of the lactone form of CT-17 free and in liposomes in PBS, plasma, whole blood; format: physicochemical, human
Experimental: To determine the ability of CT-17 to be retained in liposomal preparations,the agent was loaded into liposomes using the active loading methodology as described previously (U.S. Pat. No. 5,192,549). Two types of liposomes were used: 1) non-stealth liposomes and 2) stealth liposomes. The liposome preparations were then incubated in various biological fluids to determine drug retention in the particle. In these experiments the lipid distearoylphosphatidylcholine (DSPC) was obtained from Avanti Polar Lipids (Birmingham, AL) and cholesterol was from Nutritional Biochemicals Corp., Cleveland, Ohio. […] Solvent was evaporated at 55-60° C. on rotary evaporator for 15 min to form the lipid film. The residual solvent was then removed under high vacuum at room temperature overnight. The lipid film was hydrated using 5 ml of 0.1 M ammonium sulfate. MLVs were formed by shaking and occasional vortexing at 55-60° C. LUVs were formed by passing the liposomal suspension through two 100 nm stacked polycarbonate filters under 20 psi pressure of nitrogen using 11 passes at 55-60° C. (Liposo-Fast-Pneumatic from AVESTIN, Toronto, Canada).
FIG. 7 is a graphical comparison of the stability of the lactone form of the camptothecin drug CT-17 as a function of time. […]

Question: Which “change of fluorescence emission upon introduction of lipid bilayers” value ([1]; PBS with lipid bilayers) does the source give for `CC[C@@]1(O)C(=O)OCc2c1cc1n(c2=O)Cc2c-1nc1ccccc1c2CNN1CCN(C)CC1` [CT-17, 7-[N-(4-methyl-1-piperazino)aminomethyl]-(20S)-camptothecin] here?
Answer: Its value is “increase in fluorescence intensity”.

Question: And the “shift of the fluorescence emission spectra in the presence of liposomes” value ([1]; liposomes of DMPC or DMPG, λex 370 nm)?
Answer: Its value is “shifts to shorter wavelength”.

Question: What about the “potency at promoting DNA cleavage relative to camptothecin and SN-38” value (topoisomerase I; FIG. 11 quantitation) of the same compound?
Answer: The value was “somewhat less potent”.

Question: And the “distribution of cleavage sites vs camptothecin or SN-38” value (topoisomerase I; topoisomerase I)?
Answer: The value was “comparable to those generated by camptothecin or 7-ethyl-10-hydroxycamptothecin (SN-38)”.

Question: What about the “induction of cleavable complex formation” value (topoisomerase I; topoisomerase I, 3'-32P-labeled oligonucleotide) of the same compound?
Answer: The value was “capable of inducing cleavable complex formation”.

Question: What about the “hydrolysis of free drug to inactive carboxylate” value [2] of the same compound?
Answer: Its value is “high rate and extensive amount of hydrolysis”.
